According to US12565476B2, “2,5-disubstituted 3-methyl pyrazines and 2,5,6-trisubstituted 3-methyl pyrazines as allosteric SHP2 inhibitors” (Revolution Medicines, Inc., priority 2016, dated 2026):

molecular target: SHP2 (Homo sapiens (Human), UniProt Q06124); assay: SHP2 allosteric inhibition assay (DiFMUP prompt fluorescence); type: biochemical; conditions: 0.2 nM SHP2 incubated with 0.5 μM Activating Peptide 1 or 2, surrogate substrate DiFMUP, compound 0.00005-10 μM
Text: Without wishing to be bound by theory, SHP is allosterically activated through binding of bis-tyrosyl-phosphorylated peptides to its Src Homology 2 (SH2) domains. The latter activation step leads to the release of the auto-inhibitory interface of SHP2, which in turn renders the SHP2 protein tyrosine phosphatase (PTP) active and available for substrate recognition and reaction catalysis. The catalytic activity of SHP2 was monitored using the surrogate substrate DiFMUP in a prompt fluorescence assay format.
After 30-60-minutes incubation at 25° C., the surrogate substrate DiFMUP (Invitrogen, Cat #D6567) was added to the reaction and activity was determined by a kinetic read using a microplate reader (Envision, Perkin-Elmer or Spectramax M5, Molecular Devices). The excitation and emission wavelengths were 340 nm and 450 nm, respectively. Initial rates were determined from a linear fit of the data, and the inhibitor dose response curves were analyzed using normalized IC50 regression curve fitting with control based normalization.

Chain of SHP2 (Q06124 whole entry): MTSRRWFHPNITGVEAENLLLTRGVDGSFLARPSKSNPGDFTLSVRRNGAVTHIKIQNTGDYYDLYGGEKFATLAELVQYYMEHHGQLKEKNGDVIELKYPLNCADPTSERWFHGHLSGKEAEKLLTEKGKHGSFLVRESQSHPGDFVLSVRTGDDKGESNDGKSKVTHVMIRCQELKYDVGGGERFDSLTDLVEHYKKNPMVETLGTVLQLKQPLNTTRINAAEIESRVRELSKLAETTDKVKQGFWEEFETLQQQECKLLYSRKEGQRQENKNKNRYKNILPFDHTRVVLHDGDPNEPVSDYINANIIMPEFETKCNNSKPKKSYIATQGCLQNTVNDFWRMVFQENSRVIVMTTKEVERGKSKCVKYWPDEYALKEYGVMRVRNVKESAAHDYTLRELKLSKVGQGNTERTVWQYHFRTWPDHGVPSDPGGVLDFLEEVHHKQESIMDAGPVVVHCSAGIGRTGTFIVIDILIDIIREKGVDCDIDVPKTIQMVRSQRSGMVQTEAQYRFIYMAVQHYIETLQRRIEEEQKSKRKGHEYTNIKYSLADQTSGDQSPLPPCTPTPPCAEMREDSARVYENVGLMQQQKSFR

SMILES | IC50
Cc1nc(N2CCC3(CCC[C@H]3N)CC2)cnc1Sc1cccc(Cl)c1Cl [Example 1, (R)-8-(5-((2,3-dichlorophenyl)thio)-6-methylpyrazin-2-yl)-8-azaspiro[4.5]decan-1-amine] | 83 nM
Cc1nc(N2CCC3(CCC[C@H]3N)CC2)cnc1-c1cccc(Cl)c1Cl [Example 23, (R)-8-(5-(2,3-dichlorophenyl)-6-methylpyrazin-2-yl)-8-azaspiro[4.5]decan-1-amine] | 43 nM
Cc1nc(N2CCC(C)(N)CC2)cnc1-c1cccc(Cl)c1Cl [Example 24, 1-(5-(2,3-dichlorophenyl)-6-methylpyrazin-2-yl)-4-methylpiperidin-4-amine] | 104 nM
